Assay results taken from patent US10696691B2, “BACE1 inhibitors” (Hoffmann-La Roche Inc., priority 2015, dated 2020).

Target: T1, BACE1 (Homo sapiens, UniProt P56817)
T1 construct: endogenous in cells; host or cells: HEK293 APP cells
Assay: Cellular Aβ-lowering assay (Abeta 40 AlphaLISA, HEK293 APP cells)
Type: cell-based
Details: 18-20 hrs incubation, Aβ 40 in culture supernatants, read-out: BACE1 cell act. Aβ40 IC50
Protocol: Cellular Aβ-Lowering Assay:
The Abeta 40 AiphaLISA Assay can be used. The HEK293 APP cells were seeded in 96 well Microtiter plates in cell culture medium (Iscove's, plus 10% (v/v) fetal bovine serum, penicillin/streptomycin) to about 80% confluency and the compounds were added at a 3× concentration in ⅓ volume of culture medium (final DMSO concentration was kept at 1% v/v). After 18-20 hrs incubation at 37° C. and 5% CO2 in a humidified incubator, the culture supernatants were harvested for the determination of Aβ 40 concentrations using Perkin-Elmer Human Amyloid beta 1-40 (high specificity) Kit (Cat # AL275C).
In a Perkin-Elmer White Optiplate-384 (Cat #6007290), 2 ul culture supernatants were combined with 2 μl of a 10× AlphaLISA Anti-hABAcceptor beads+Biotinylated Antibody Anti-AD 1-40 Mix (50 μg/mL/5 nM). After 1 hour room temperature incubation, 16 μl of a 1.25× preparation of Streptavidin (SA) Donor beads (25 μg/mL) were added and incubated for 30 minutes in the Dark. Light Emission at 615 nm was then recorded using EnVision-Alpha Reader. Levels of Aβ 40 in the culture supernatants were calculated as percentage of maximum signal (cells treated with 1% DMSO without inhibitor). The IC50 values were calculated using the Excel XLfit software.

T1 sequence (P56817 46-501): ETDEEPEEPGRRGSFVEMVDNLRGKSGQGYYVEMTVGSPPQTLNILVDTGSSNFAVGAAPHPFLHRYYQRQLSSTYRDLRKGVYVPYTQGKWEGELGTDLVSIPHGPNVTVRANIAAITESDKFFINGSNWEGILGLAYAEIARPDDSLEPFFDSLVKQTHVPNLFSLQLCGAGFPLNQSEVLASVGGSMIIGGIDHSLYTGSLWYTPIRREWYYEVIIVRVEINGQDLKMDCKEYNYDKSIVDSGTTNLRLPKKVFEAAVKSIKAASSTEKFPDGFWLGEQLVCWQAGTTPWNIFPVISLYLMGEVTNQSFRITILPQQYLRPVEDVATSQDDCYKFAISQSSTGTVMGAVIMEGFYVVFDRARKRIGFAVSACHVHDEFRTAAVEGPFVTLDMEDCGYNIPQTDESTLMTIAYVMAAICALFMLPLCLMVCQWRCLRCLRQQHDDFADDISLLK

| SMILES | IC50 |
| --- | --- |
| CC1(C)C(N)=N[C@](C)(c2cc(NC(=O)c3ccc(C#N)cn3)ccc2F)[C@@H]2CCN=[S@@]21=O [Example 16AB, N-(3-((3aS,4R,8R)-6-amino-4,7,7-trimethyl-8-oxido-3,3a,4,7-tetrahydro-2H-isothiazolo[1,5-a][1,4]thiazin-4-yl)-4-fluorophenyl)-5-cyanopicolinamide] | 200 pM |
| COc1ccc(C(=O)Nc2ccc(F)c([C@@]3(C)N=C(N)C(C)(C)[S@@]4(=O)=NCC[C@@H]34)c2)nc1 [Example 24AB, N-(3-((3aS,4R,8R)-6-amino-4,7,7-trimethyl-8-oxido-3,3a,4,7-tetrahydro-2H-isothiazolo[1,5-a][1,4]thiazin-4-yl)-4-fluorophenyl)-5-methoxypicolinamide] | 700 pM |
| CC1(C)C(N)=N[C@](C)(c2cc(NC(=O)c3ccc(OCC(F)(F)C(F)F)cn3)ccc2F)[C@@H]2CCN=[S@@]21=O [Example 12AB, N-(3-((3aS,4R,8R)-6-amino-4,7,7-trimethyl-8-oxido-3,3a,4,7-tetrahydro-2H-isothiazolo[1,5-a][1,4]thiazin-4-yl)-4-fluorophenyl)-5-(2,2,3,3-tetrafluoropropoxy)picolinamide] | 1400 pM |
| Cc1cc(C#N)ccc1C(=O)Nc1ccc(F)c([C@@]2(C)N=C(N)C(C)(C)[S@@]3(=O)=NCC[C@@H]23)c1 [Example 9AB, N-(3-((3aS,4R,8R)-6-amino-4,7,7-trimethyl-8-oxido-3,3a,4,7-tetrahydro-2H-isothiazolo[1,5-a][1,4]thiazin-4-yl)-4-fluorophenyl)-4-cyano-2-methylbenzamide] | 12300 pM |
| Cc1ncc(C(=O)Nc2ccc(F)c([C@@]3(C)N=C(N)C(C)(C)[S@@]4(=O)=NCC[C@@H]34)c2)cn1 [Example 21AB, N-(3-((3aS,4R,8R)-6-amino-4,7,7-trimethyl-8-oxido-3,3a,4,7-tetrahydro-2H-isothiazolo[1,5-a][1,4]thiazin-4-yl)-4-fluorophenyl)-2-methylpyrimidine-5-carboxamide] | 914000 pM |
| Cc1ccc(C(=O)Nc2ccc(F)c([C@@]3(C)N=C(N)C(C)(C)[S@@]4(=O)=NCC[C@@H]34)c2)nc1 [Example 20AB, N-(3-((3aS,4R,8R)-6-amino-4,7,7-trimethyl-8-oxido-3,3a,4,7-tetrahydro-2H-isothiazolo[1,5-a][1,4]thiazin-4-yl)-4-fluorophenyl)-5-methylpicolinamide] | 400 pM |
| Cc1cnc(C(=O)Nc2ccc(F)c([C@@]3(C)N=C(N)C(C)(C)[S@@]4(=O)=NCC[C@@H]34)c2)c(C)c1 [Example 23AB, N-(3-((3aS,4R,8R)-6-amino-4,7,7-trimethyl-8-oxido-3,3a,4,7-tetrahydro-2H-isothiazolo[1,5-a][1,4]thiazin-4-yl)-4-fluorophenyl)-3,5-dimethylpicolinamide] | 200 pM |
| CC1(C)C(N)=N[C@](C)(c2cc(NC(=O)c3ccc(OCC(F)F)cn3)ccc2F)[C@@H]2CCN=[S@@]21=O [Example 10AB, N-(3-((3aS,4R,8R)-6-amino-4,7,7-trimethyl-8-oxido-3,3a,4,7-tetrahydro-2H-isothiazolo[1,5-a][1,4]thiazin-4-yl)-4-fluorophenyl)-5-(2,2-difluoroethoxy)picolinamide] | 2200 pM |
| CC1(C)C(N)=N[C@](C)(c2cc(NC(=O)c3ccc(Cl)cn3)ccc2F)[C@@H]2CCN=[S@@]21=O [Example 18AB, N-(3-((3aS,4R,8R)-6-amino-4,7,7-trimethyl-8-oxido-3,3a,4,7-tetrahydro-2H-isothiazolo[1,5-a][1,4]thiazin-4-yl)-4-fluorophenyl)-5-chloropicolinamide] | 200 pM |

Results, then the compound that gave them:

| IC50 | SMILES |
| --- | --- |
| 1300 pM | CC1(C)C(N)=N[C@](C)(c2cc(NC(=O)c3ncc(F)cc3F)ccc2F)[C@@H]2CCN=[S@@]21=O [Example 19AB, N-(3-((3aS,4R,8R)-6-amino-4,7,7-trimethyl-8-oxido-3,3a,4,7-tetrahydro-2H-isothiazolo[1,5-a][1,4]thiazin-4-yl)-4-fluorophenyl)-3,5-difluoropicolinamide] |
| 1100 pM | CC1(C)C(N)=N[C@](C)(c2cc(NC(=O)c3nn(C(F)F)cc3Cl)ccc2F)[C@@H]2CCN=[S@@]21=O [Example 6AB, N-(3-((3aS,4R,8R)-6-amino-4,7,7-trimethyl-8-oxido-3,3a,4,7-tetrahydro-2H-isothiazolo[1,5-a][1,4]thiazin-4-yl)-4-fluorophenyl)-4-chloro-1-(difluoromethyl)-1H-pyrazole-3-carboxamide] |
| 600 pM | CC1(C)C(N)=N[C@](C)(c2cc(NC(=O)c3ccc(OC(F)F)cn3)ccc2F)[C@@H]2CCN=[S@@]21=O [Example 5AB, N-(3-((3aS,4R,8R)-6-amino-4,7,7-trimethyl-8-oxido-3,3a,4,7-tetrahydro-2H-isothiazolo[1,5-a][1,4]thiazin-4-yl)-4-fluorophenyl)-5-(difluoromethoxy)picolinamide] |
| 200 pM | Cc1cc(OC(F)F)cnc1C(=O)Nc1ccc(F)c([C@@]2(C)N=C(N)C(C)(C)[S@@]3(=O)=NCC[C@@H]23)c1 [Example 11AB, N-(3-((3aS,4R,8R)-6-amino-4,7,7-trimethyl-8-oxido-3,3a,4,7-tetrahydro-2H-isothiazolo[1,5-a][1,4]thiazin-4-yl)-4-fluorophenyl)-5-(difluoromethoxy)-3-methylpicolinamide] |
| 300 pM | CC1(C)C(N)=N[C@](C)(c2cc(NC(=O)c3ncc(C(F)(F)F)cc3Cl)ccc2F)[C@@H]2CCN=[S@@]21=O [Example 8AB, N-(3-((3aS,4R,8R)-6-amino-4,7,7-trimethyl-8-oxido-3,3a,4,7-tetrahydro-2H-isothiazolo[1,5-a][1,4]thiazin-4-yl)-4-fluorophenyl)-3-chloro-5-(trifluoromethyl)picolinamide] |
